Source: patent US12390447B2, “Sirtuin 6 protein deacylase (SIRT6) activators” (Wisconsin Alumni Research Foundation, priority 2019, dated 2025)

What was measured:
Format in all cases: biochemical
SIRT6 [1] = molecular target: T1, SIRT6 (Homo sapiens, UniProt Q8N6T7); assay: Small molecule SIRT6 activator screen (H3K9ac peptide deacetylation, HPLC); conditions: compound 100 μM; SIRT6 1 μM; H3K9ac peptide 20 μM; 0.5 mM NAD+
Method: Mastermix containing SIRT6, buffer, and H3K9ac peptide were distributed to wells using Microflex peristaltic dispenser (Beckman). Plates were spun and preheated to 37° C. before addition of NAD^+ using peristaltic dispenser. After 60 minutes reactions were quenched with 2% TFA final using peristaltic dispenser then sealed and spun again before in-house HPLC separation and quantification of substrate and product peptides. Reaction conditions were 1 μM SIRT6, 0.5 mM NAD^+, […] (4-16), 20 mM potassium phosphate pH 7.5, 10% DMSO, and either 10 or 100 μM compound determined by 10-fold dilution of stock library concentration.
All sirtuin deacylation assays were carried out at 37° C. in 20 mM potassium phosphate pH 7.5 with 0.5 mM NAD^+, 10% DMSO, and 20 μM H3K9ac or H3K9myr peptides, unless otherwise noted in legend, and quenched by the addition of 2% TFA final. Steady-state reactions were constrained to less than 20% substrate turnover to prevent product inhibition. A variety of times were required to monitor SIRT6 deacetylation (2-60 minutes) under this restraint given the ability to strongly activate catalysis. In these cases, specific activities were determined and either reported as is or as fold-activation of specific activity. […] Deacetylation reactions were analyzed using a gradient of 33-100% B (30% acetonitrile with 0.05% TFA) in 8 min at 1.6 mL min^−1. Demyristoylation reactions were analyzed using a gradient of 3 to 100% B (acetonitrile with 0.05% TFA) in 10 min at 1.6 mL min^−1. The product and substrate peaks were quantified and ratio of these allowed for quantification of product formation.

SIRT6 [2] = molecular target: T1, SIRT6; assay: SIRT6 deacetylation of H3K9ac peptide, fold-activation versus activator concentration; conditions: for EC50: H3K9ac peptide 20 μM, sigmoidal curve fit
Method: (1A) Compound libraries BML-2803, BML-2800, and an additional set of 178 molecules were screened at 100 μM for their ability to stimulate SIRT6 (1 μM) deacetylation of H3K9ac peptide (20 μM) in the presence of 0.5 mM NAD^+. SIRT6 activity was measured by HPLC quantification of H3K9ac and deacetylated product (inset) and fold activations relative to DMSO control were determined and compiled. (1B) Fold-activation of SIRT6 (1 μM) determined in the presence of either 0-400 μM CL4, 0-150 μM TTNPB, 0-100 μM Lysophosphatidic acid (LPA), or 0-200 μM linoleoylglycine (LGly). Maximum fold-activation and EC50 determined by sigmoidal curve fit. (1C) Steady-state kinetic analysis of SIRT6 (1 μM) deacetylation was conducted with 0-250 μM H3K9ac peptide in the presence of 100 μM CL4, 50 μM TTNPB, 50 μM LPA, or 50 μM LGly. Constants Km, H3K9ac and kcat were determined by fitting data to Michaelis-Menten equation. (1D) Fold-activations of SIRT1 (0.1 μM), SIRT2 (0.2 μM), SIRT3 (1 μM), SIRT5 (2 μM), and SIRT6 (1 μM) determined in the presence of CL4 (100 μM), TTNPB (50 μM), and LPA (50 μM) relative to DMSO control against 20 μM H3K9ac peptide and 0.5 mM NAD^+. Mean values reported with error bars representing standard deviation of at least three replicates.
All sirtuin deacylation assays were carried out at 37° C. in 20 mM potassium phosphate pH 7.5 with 0.5 mM NAD^+, 10% DMSO, and 20 μM H3K9ac or H3K9myr peptides, unless otherwise noted in legend, and quenched by the addition of 2% TFA final. Steady-state reactions were constrained to less than 20% substrate turnover to prevent product inhibition. A variety of times were required to monitor SIRT6 deacetylation (2-60 minutes) under this restraint given the ability to strongly activate catalysis. In these cases, specific activities were determined and either reported as is or as fold-activation of specific activity. Deacylation reactions were analyzed by reversed phase high-performance liquid chromatography on a Kinetex C18 column (100 Å, 100×4.6 mm, 2.6 μm, Phenomenex) by monitoring the formation of the deacylated product at 214 nm. Deacetylation reactions were analyzed using a gradient of 33-100% B (30% acetonitrile with 0.05% TFA) in 8 min at 1.6 mL min^−1. Demyristoylation reactions were analyzed using a gradient of 3 to 100% B (acetonitrile with 0.05% TFA) in 10 min at 1.6 mL min^−1. The product and substrate peaks were quantified and ratio of these allowed for quantification of product formation. […]

SIRT6 [3] = molecular target: T1, SIRT6; assay: Histone deacetylation assay with acid extracted histones, H3K9ac immunoblot; conditions: 50 μM compound; histones 75 μg/mL from SAHA-treated HEK293T cells; SIRT6 1 μM
Method: HEK293T cells were cultured in Dulbecco's Modified Eagle Medium supplemented with 10% fetal bovine serum. Cells were treated with 10 μM SAHA for 24 hours prior to harvest. Cells were trypsinized and pelleted prior to washing twice with ice-cold PBS. Cells were then resuspended in 800 μL ice-cold 10 mM HEPES pH 7.4, 10 mM KCl, 0.05% NP-40, and histone deacetylase and protease inhibitors (1 mM sodium butyrate, 4 μM trichostatin A, 100 μM phenylmethylsulfonyl fluoride, 10 μg/mL leupeptin, and 10 μg/mL aprotinin) for 20 minutes. After a 1,000×g 10 minute spin at 4° C. the pelleted nuclei were resuspended in 0.2 M HCl and incubated on ice for 20 minutes. Following 10 minute spin at 21,000×g at 4° C. the acid extracted supernatant was neutralized with 1 M Tris-HCl pH 8 prior to BCA protein concentration measurement. Histone deacetylation assays were ran with 75 μg/mL extracted histones, 1 μM SIRT6, 50 μM CL5, CL5D or 5% DMSO control, 0.5 mM NAD^+, in 20 mM potassium phosphate pH 7.5. Reactions ran at 37° C. prior to quench with SDS loading dye and 5 minute boil. 540 ng of nuclei acid extract following sirtuin reaction were loaded for 15% SDS-PAGE followed by transfer to nitrocellulose. Membrane was blocked with 1% milk before blotted with anti-H3K9ac (Active Motiff 39917) 1:3000 and imaged. […] Bands were quantified using Image Studio Lite (LiCor). […]

T1 sequence (Q8N6T7 whole entry): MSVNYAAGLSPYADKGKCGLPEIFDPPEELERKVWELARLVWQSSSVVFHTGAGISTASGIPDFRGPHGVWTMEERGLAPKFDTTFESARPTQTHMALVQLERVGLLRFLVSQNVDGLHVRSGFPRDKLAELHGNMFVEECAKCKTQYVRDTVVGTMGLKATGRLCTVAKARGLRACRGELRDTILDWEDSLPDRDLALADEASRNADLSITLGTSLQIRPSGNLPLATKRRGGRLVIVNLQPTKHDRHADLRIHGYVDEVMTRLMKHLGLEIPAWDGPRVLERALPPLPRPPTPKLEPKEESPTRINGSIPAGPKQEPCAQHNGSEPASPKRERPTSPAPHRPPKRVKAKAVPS

F.A. (fold-activation of SIRT6 relative to DMSO control) (SIRT6 [1])	Compound	further results
25 fold	CCCCCCCCCCCCCCC(F)C(=O)O (stereo not shown) [2-Fluoropalmitic acid]	
16 fold	CCCCCCCC/C=C\C/C=C\C/C=C\CCCC(=O)O [Mead acid (20:3 n-9)]	
	O=C(O)c1ccc2c(c1)C(=O)N(c1ccc(NC(=O)c3ccccc3)cc1)C2=O [CL-5, 2-(4-benzamidophenyl)-1,3-dioxoisoindoline-5-carboxylic acid]	concentration required to stimulate 4-fold activation of SIRT6 (SIRT6 [2]; SIRT6 1 μM, H3K9ac 20 μM, 0.5 mM NAD+): >400 µM; activation of SIRT6 (in words) (SIRT6 [2]; concentrations up to 400 μM): no activation; SIRT6 deacetylation at H3K9 of whole histone substrate (in words) (SIRT6 [3]): not
	CCCCCCCC/C=C\CCCCCCCC(=O)OCC(O)COP(=O)(O)O (stereo not shown) [Lysophosphatidic acid, oleoyl-lysophosphatidic acid, reference compound]	EC50 (SIRT6 [2]; SIRT6 1 μM, 0.5 mM NAD+): 25 ± 1 µM
3.7 fold	CCCCCCCCCCCCCC(=O)O [myristic acid]	
	C/C(=C\c1ccc(C(=O)O)cc1)c1ccc2c(c1)C(C)(C)CCC2(C)C [TTNPB, arotinoid acid, reference compound]	EC50 (SIRT6 [2]; SIRT6 1 μM, 0.5 mM NAD+): 53 ± 3 µM
17 fold	Eicosatrienoic acid (20:3 n-3)	

Compound	F.A. (fold-activation of SIRT6 relative to DMSO control) (SIRT6 [1])	further results
CCCCC/C=C\C/C=C\C/C=C\C/C=C\CCCC(=O)O [Arachidonic acid (20:4 n-6)]	15 fold	
